Data on 2 molecules can be found in patent US20200229435A1, “ANTIMICROBIAL MIXTURE CONTAINING 4-(3-ETHOXY-4-HYDROXYPHENYL)BUTAN-2-ONE AND AN AMMONIUM COMPOUND, AND COSMETIC COMPOSITION CONTAINING SAME” (L'OREAL, priority 2017, published 2020).

Assay type in all cases: cell-based
Test [1] has as its system Candida albicans ATCC 10231. Briefly: MIC / synergy (FIC index) microplate growth test, optical density at 620 nm, Candida albicans. The text has this:
(§1) FIC Index=(MICa with B/MICa)+(MICb with A/MICb)
(§2) with: • MICa with B: minimum concentration of product A in the combination A+B which makes it possible to obtain an inhibitory effect • MICb with A: minimum concentration of product B in the combination A+B which makes it possible to obtain the inhibitory effect. • MICa: minimum inhibitory concentration of product A alone. • MICb: minimum inhibitory concentration of product B alone.
(§3) As regards the combinations tested, MICa with b and MICb with a are the respective concentrations of A and of B in the combinations which make it possible to obtain a microbial growth percentage of less than or equal to 25%.
(§4) When the FIC index value is less than or equal to 1, it is considered that the combination of test compounds has a synergistic effect.
The microbial strain Candida albicans ATCC 10231 and a double-concentration Sabouraud broth liquid culture medium were used.
(§5) A 96-well microplate and an […] of 32.5° C. are used.
(§6) The incubation time of the microplate is: • from 24 hours to 48 hours aerobically for Aspergillus niger; • from 18 to 24 hours aerobically for Candida albicans and Pseudomonas aeruginosa.
(§7) A 10% (weight/volume) stock solution was prepared by mixing 1 g of compound in 9 ml of aqueous 1% agar solution. Successive dilutions were made with the 1% agar solution. • Tests of compounds A and B alone
(§8) 50 μL of each of the daughter solutions obtained containing compound A or B are added to the microplate wells. 100 μL of Sabouraud liquid nutrient broth seeded with the strain Aspergillus niger and 50 μL of aqueous 1% agar solution are also added thereto. • Tests of compounds A and B as a mixture
(§9) 50 μL of each of the daughter solutions obtained containing compound A and 50 μL of each of the daughter solutions obtained containing compound B are added to the microplate wells. 100 μL of Sabouraud liquid nutrient broth seeded at double concentration with the strain Aspergillus niger are also added thereto.
(§10) A positive microbial growth control was also prepared. The positive microbial growth control corresponds to a mixture of 100 μL of aqueous 1% agar solution with 100 μL of Sabouraud liquid nutrient broth seeded at double concentration with the strain Aspergillus niger in the absence of compounds A and B.
(§11) An absorbance control was performed in parallel on compounds A and B alone. This control corresponds to 100 μL of double concentration sterile Sabouraud liquid nutrient broth+100 μL of double concentration compound A or B.
(§12) The test as described above (tests, absorbance control and growth control) was performed again to test the combination A+B on the strains Candida albicans and Pseudomonas aeruginosa.

Test [2] has as its system Aspergillus niger ATCC 6275. Nature of the test: MIC / synergy (FIC index) microplate growth test, optical density at 620 nm, Aspergillus niger.
From the text: as §1, §2, §3, §4
The microbial strain Aspergillus niger ATCC 6275, and a double-concentration Sabouraud broth liquid culture medium supplemented with polyoxyethylenated (20 OE) sorbitan monopalmitate (Tween 40 from Croda) and Phytagel© BioReagent were used.
as §5, §6, §7, §8, §9, §10, §11
In the two cases (test and control), the inoculum represents the concentration of the strain Aspergillus niger present in the final volume of the wells (200 μL) and is between 2 and 6×10^5 cfu/ml of Aspergillus niger.

In test [3] the test system is Pseudomonas aeruginosa ATCC 9027. Nature of the test: MIC / synergy (FIC index) microplate growth test, optical density at 620 nm, Pseudomonas aeruginosa.
From the text: as §1, §2, §3, §4
The microbial strain Pseudomonas aeruginosa ATCC 9027 and a double-concentration nutritive broth liquid culture medium were used.
as §5, §6, §7, §8, §9, §10, §11, §12

Setting [4] is: weight %, first concentration giving growth <= 25%.

As for `CCOc1cc(CCC(C)=O)ccc1O` [A, 4-(3-ethoxy-4-hydroxyphenyl)butan-2-one], the microbial growth percentage in test [1] (A 0.025 weight % alone) was found to be 73%; in test [1] (A 0.05 weight % alone), 73%; in test [1] (A 0.1 weight % alone), 49%; in test [1] (A 0.2 weight % alone), 9%; in test [2] (Example 1, A 0.025 weight % alone) it was 150%; in test [2] (Example 1, A 0.05 weight % alone), 113%. The microbial growth percentage is recorded as 112% in test [2] (Example 1, A 0.1 weight % alone); 75% in test [2] (Example 1, A 0.2 weight % alone); 5% in test [2] (Example 1, A 0.4 weight % alone); 212% in test [2] (Example 2, A 0.025 weight % alone); 92% in test [2] (Example 2, A 0.05 weight % alone); 68% in test [2] (Example 2, A 0.1 weight % alone). Besides, the microbial growth percentage in test [2] (Example 2, A 0.2 weight % alone) was found to be 29%; in test [2] (Example 2, A 0.4 weight % alone), 17%; in test [3] (A 0.0625 weight % alone), 114%; in test [3] (A 0.125 weight % alone), 59%; in test [3] (A 0.25 weight % alone) it was 65%; in test [3] (A 0.5 weight % alone) it was 41%. For the same molecule, in test [3] (A 1 weight % alone), the microbial growth percentage was 15%. The “% MIC of A alone” value in test [1] (setting [4]) amounted to 0.2%; in test [2] (Example 1, weight %, first concentration giving growth <= 25%), 0.4%; in test [2] (Example 2, weight %, first concentration giving growth <= 25%), 0.4%; in test [3] (setting [4]), 1%.

For `CCCCCCCCCCCCCCCCCCCCCC[N+](C)(C)C.[Cl-]` [B1, behenyltrimethylammonium chloride], the microbial growth percentage is reported as 50% in test [1] (B1 0.002 weight % alone); 1% in test [1] (B1 0.00395 weight % alone); 186% in test [2] (B1 0.049 weight % alone); 155% in test [2] (B1 0.1 weight % alone); 78% in test [2] (B1 0.2 weight % alone); 34% in test [2] (B1 0.4 weight % alone). Also, the microbial growth percentage in test [2] (B1 0.79 weight % alone) turned out to be 8%; in test [3] (B1 0.001975 weight % alone), 68%; in test [3] (B1 0.00395 weight % alone) it was 93%; in test [3] (B1 0.0079 weight % alone) it was 36%; in test [3] (B1 0.0158 weight % alone) it was 30%; in test [3] (B1 0.0316 weight % alone), 1%. The “% MIC of B1 alone” value turned out to be 0.00395% in test [1] (setting [4]), 0.79% in test [2] (setting [4]) and 0.0316% in test [3] (setting [4]).
